According to PubChem BioAssay AID1918991 (Molecular Pharmacology Branch, DTP, NCI, 2023):
One block for each compound: values may come before it.

System: 186277-243-T-J2-PDC complex spheroid growth
Experiment: Anticancer human tumor 186277-243-T-J2-PDC patient-derived colon adenocarcinoma cell line growth inhibition [AhR]
Details: for IC50: curve of first compound; for viability, T/C: stronger effect = lower value
Method in brief: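 Agents were dosed in half-log steps down from roughly clinical Cmax, or from 10 microM where Cmax was unknown, alone and with AhR antagonists. Read-out: percent test/control growth of tumor spheroids containing HUVEC and MSC stromal cells.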

[1] = second compound 0.1 µM, first compound 0.000949 µM
[2] = second compound 0.1 µM, first compound 0.003 µM
[3] = second compound 0.1 µM, first compound 0.00949 µM
[4] = second compound 0.1 µM, first compound 0.03 µM
[5] = second compound 0.1 µM, first compound 0.0949 µM
[6] = second compound 0.1 µM, first compound 0.3 µM
[7] = second compound 0.316 µM, first compound 0.000949 µM
[8] = second compound 0.316 µM, first compound 0.003 µM
[9] = second compound 0.316 µM, first compound 0.00949 µM
[10] = second compound 0.316 µM, first compound 0.03 µM
[11] = second compound 0.316 µM, first compound 0.0949 µM
[12] = second compound 0.316 µM, first compound 0.3 µM
[13] = second compound 1 µM, first compound 0.000949 µM
[14] = second compound 1 µM, first compound 0.003 µM
[15] = second compound 1 µM, first compound 0.00949 µM
[16] = second compound 1 µM, first compound 0.03 µM
[17] = second compound 1 µM, first compound 0.0949 µM
[18] = second compound 1 µM, first compound 0.3 µM
[19] = second compound 3.16 µM, first compound 0.000949 µM
[20] = second compound 3.16 µM, first compound 0.003 µM
[21] = second compound 3.16 µM, first compound 0.00949 µM
[22] = second compound 3.16 µM, first compound 0.03 µM
[23] = second compound 3.16 µM, first compound 0.0949 µM
[24] = second compound 3.16 µM, first compound 0.3 µM
[25] = second compound 10 µM, first compound 0.000949 µM
[26] = second compound 10 µM, first compound 0.003 µM
[27] = second compound 10 µM, first compound 0.00949 µM
[28] = second compound 10 µM, first compound 0.03 µM
[29] = second compound 10 µM, first compound 0.0949 µM
[30] = second compound 10 µM, first compound 0.3 µM
[31] = second compound 0.1 µM, first compound 0.0316 µM
[32] = second compound 0.1 µM, first compound 0.1 µM
[33] = second compound 0.1 µM, first compound 0.316 µM
[34] = second compound 0.1 µM, first compound 1 µM
[35] = second compound 0.1 µM, first compound 3.16 µM
[36] = second compound 0.1 µM, first compound 10 µM
[37] = second compound 0.316 µM, first compound 0.0316 µM
[38] = second compound 0.316 µM, first compound 0.1 µM
[39] = second compound 0.316 µM, first compound 0.316 µM
[40] = second compound 0.316 µM, first compound 1 µM
[41] = second compound 0.316 µM, first compound 3.16 µM
[42] = second compound 0.316 µM, first compound 10 µM
[43] = second compound 1 µM, first compound 0.0316 µM
[44] = second compound 1 µM, first compound 0.1 µM
[45] = second compound 1 µM, first compound 0.316 µM
[46] = second compound 1 µM, first compound 1 µM
[47] = second compound 1 µM, first compound 3.16 µM
[48] = second compound 1 µM, first compound 10 µM
[49] = second compound 3.16 µM, first compound 0.0316 µM
[50] = second compound 3.16 µM, first compound 0.1 µM
[51] = second compound 3.16 µM, first compound 0.316 µM
[52] = second compound 3.16 µM, first compound 1 µM
[53] = second compound 3.16 µM, first compound 3.16 µM
[54] = second compound 3.16 µM, first compound 10 µM
[55] = second compound 10 µM, first compound 0.0316 µM
[56] = second compound 10 µM, first compound 0.1 µM
[57] = second compound 10 µM, first compound 0.316 µM
[58] = second compound 10 µM, first compound 1 µM
[59] = second compound 10 µM, first compound 3.16 µM
[60] = second compound 10 µM, first compound 10 µM
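Also: spheroids exposed to compounds for seven days before the viability read.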
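For viability, T/C in this document: luminescent signal used as a stand-in for viable cell amount; 100% = DMSO vehicle control wells.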

IC50 (second compound 0.1 µM): 15.8 nM
IC50 (second compound 0.316 µM): 15.8 nM
IC50 (second compound 1 µM): 16.4 nM
IC50 (second compound 3.16 µM): 12.4 nM
IC50 (second compound 10 µM): < 0.949 nM
Structure (SMILES): CC(C)CC(NC(=O)C(Cc1ccccc1)NC(=O)c1cnccn1)B(O)O (stereo not given) + Cc1cncc(-c2nc(NCCc3c[nH]c4ccccc34)c3ncn(C(C)C)c3n2)c1
viability, T/C [1]: 103%
viability, T/C [2]: 108%
viability, T/C [3]: 88.1%
viability, T/C [4]: 1.86%
viability, T/C [5]: 0.49%
viability, T/C [6]: 0.14%
viability, T/C [7]: 131%
viability, T/C [8]: 120%
viability, T/C [9]: 89.1%
viability, T/C [10]: 0.33%
viability, T/C [11]: 0.05%
viability, T/C [12]: 0.12%
viability, T/C [13]: 97.3%
viability, T/C [14]: 107%
viability, T/C [15]: 95.2%
viability, T/C [16]: 0.51%
viability, T/C [17]: 0.15%
viability, T/C [18]: 0.11%
viability, T/C [19]: 102%
viability, T/C [20]: 116%
viability, T/C [21]: 65.1%
viability, T/C [22]: 0.66%
viability, T/C [23]: 0.05%
viability, T/C [24]: 0.13%
viability, T/C [25]: 44.9%
viability, T/C [26]: 53.5%
viability, T/C [27]: 1.63%
viability, T/C [28]: 0.26%
viability, T/C [29]: 0.13%
viability, T/C [30]: 0.2%

IC50 (second compound 0.1 µM): 23.2 nM
IC50 (second compound 0.316 µM): 20.4 nM
IC50 (second compound 1 µM): 26.2 nM
IC50 (second compound 3.16 µM): 17.8 nM
IC50 (second compound 10 µM): < 0.949 nM
Structure (SMILES): CCc1c2c(nc3ccc(O)cc13)-c1cc3c(c(=O)n1C2)COC(=O)[C@]3(O)CC + Cc1cncc(-c2nc(NCCc3c[nH]c4ccccc34)c3ncn(C(C)C)c3n2)c1
viability, T/C [1]: 112%
viability, T/C [2]: 96%
viability, T/C [3]: 66%
viability, T/C [4]: 46.1%
viability, T/C [5]: 25.2%
viability, T/C [6]: 11.7%
viability, T/C [7]: 126%
viability, T/C [8]: 83.1%
viability, T/C [9]: 70.9%
viability, T/C [10]: 44.2%
viability, T/C [11]: 21.7%
viability, T/C [12]: 11.7%
viability, T/C [13]: 123%
viability, T/C [14]: 83.7%
viability, T/C [15]: 73.5%
viability, T/C [16]: 48.5%
viability, T/C [17]: 20.2%
viability, T/C [18]: 11.8%
viability, T/C [19]: 108%
viability, T/C [20]: 75.2%
viability, T/C [21]: 66.8%
viability, T/C [22]: 43.7%
viability, T/C [23]: 17.3%
viability, T/C [24]: 9.67%
viability, T/C [25]: 24.6%
viability, T/C [26]: 28.9%
viability, T/C [27]: 32%
viability, T/C [28]: 17.6%
viability, T/C [29]: 6.54%
viability, T/C [30]: 3.87%

IC50 (second compound 0.1 µM): > 10000 nM
IC50 (second compound 0.316 µM): > 10000 nM
IC50 (second compound 1 µM): > 10000 nM
IC50 (second compound 3.16 µM): > 10000 nM
IC50 (second compound 10 µM): < 31.6 nM
Structure (SMILES): COc1cc(Nc2ncc3c(n2)-c2ccc(Cl)cc2C(c2c(F)cccc2OC)=NC3)ccc1C(=O)O + Cc1cncc(-c2nc(NCCc3c[nH]c4ccccc34)c3ncn(C(C)C)c3n2)c1
viability, T/C [31]: 90.2%
viability, T/C [32]: 77.9%
viability, T/C [33]: 70.2%
viability, T/C [34]: 61.6%
viability, T/C [35]: 70.5%
viability, T/C [36]: 74.5%
viability, T/C [37]: 91.9%
viability, T/C [38]: 78.6%
viability, T/C [39]: 72.3%
viability, T/C [40]: 61.8%
viability, T/C [41]: 67.1%
viability, T/C [42]: 72.2%
viability, T/C [43]: 96.9%
viability, T/C [44]: 75.4%
viability, T/C [45]: 74.4%
viability, T/C [46]: 67.1%
viability, T/C [47]: 64.3%
viability, T/C [48]: 70.6%
viability, T/C [49]: 93.2%
viability, T/C [50]: 71.4%
viability, T/C [51]: 71.9%
viability, T/C [52]: 59.4%
viability, T/C [53]: 63%
viability, T/C [54]: 71.5%
viability, T/C [55]: 37.9%
viability, T/C [56]: 27.4%
viability, T/C [57]: 23.2%
viability, T/C [58]: 24.6%
viability, T/C [59]: 23.8%
viability, T/C [60]: 31.6%

IC50 (second compound 0.1 µM): 3140 nM
IC50 (second compound 0.316 µM): 3060 nM
IC50 (second compound 1 µM): 3740 nM
IC50 (second compound 3.16 µM): 3300 nM
IC50 (second compound 10 µM): < 31.6 nM
Structure (SMILES): Nc1ccccc1NC(=O)c1ccc(CNC(=O)OCc2cccnc2)cc1 + Cc1cncc(-c2nc(NCCc3c[nH]c4ccccc34)c3ncn(C(C)C)c3n2)c1
viability, T/C [31]: 91.1%
viability, T/C [32]: 94.1%
viability, T/C [33]: 100%
viability, T/C [34]: 96%
viability, T/C [35]: 49.7%
viability, T/C [36]: 8.44%
viability, T/C [37]: 101%
viability, T/C [38]: 105%
viability, T/C [39]: 101%
viability, T/C [40]: 93.5%
viability, T/C [41]: 48.8%
viability, T/C [42]: 7.07%
viability, T/C [43]: 82%
viability, T/C [44]: 114%
viability, T/C [45]: 92.2%
viability, T/C [46]: 111%
viability, T/C [47]: 57.1%
viability, T/C [48]: 8.57%
viability, T/C [49]: 94.1%
viability, T/C [50]: 97.7%
viability, T/C [51]: 93.1%
viability, T/C [52]: 86.1%
viability, T/C [53]: 51.6%
viability, T/C [54]: 8.37%
viability, T/C [55]: 42.4%
viability, T/C [56]: 36.9%
viability, T/C [57]: 23.9%
viability, T/C [58]: 10.1%
viability, T/C [59]: 2.97%
viability, T/C [60]: 0.95%

IC50 (second compound 0.1 µM): 955 nM
IC50 (second compound 0.316 µM): 832 nM
IC50 (second compound 1 µM): 818 nM
IC50 (second compound 3.16 µM): 756 nM
IC50 (second compound 10 µM): 168 nM
Structure (SMILES): O=C(C=Cc1cccc(S(=O)(=O)Nc2ccccc2)c1)NO + Cc1cncc(-c2nc(NCCc3c[nH]c4ccccc34)c3ncn(C(C)C)c3n2)c1
viability, T/C [31]: 98.9%
viability, T/C [32]: 89.6%
viability, T/C [33]: 94%
viability, T/C [34]: 47.9%
viability, T/C [35]: 8.19%
viability, T/C [36]: 2.59%
viability, T/C [37]: 92.1%
viability, T/C [38]: 89.1%
viability, T/C [39]: 94.8%
viability, T/C [40]: 42%
viability, T/C [41]: 7.8%
viability, T/C [42]: 2.18%
viability, T/C [43]: 105%
viability, T/C [44]: 95.7%
viability, T/C [45]: 86.8%
viability, T/C [46]: 42.2%
viability, T/C [47]: 9.76%
viability, T/C [48]: 2.85%
viability, T/C [49]: 106%
viability, T/C [50]: 103%
viability, T/C [51]: 111%
viability, T/C [52]: 31.8%
viability, T/C [53]: 10.6%
viability, T/C [54]: 3.82%
viability, T/C [55]: 76.9%
viability, T/C [56]: 67.9%
viability, T/C [57]: 28.2%
viability, T/C [58]: 10.7%
viability, T/C [59]: 6.37%
viability, T/C [60]: 3.77%

IC50 (second compound 0.1 µM): > 10000 nM
IC50 (second compound 0.316 µM): > 10000 nM
IC50 (second compound 1 µM): > 10000 nM
IC50 (second compound 3.16 µM): > 10000 nM
IC50 (second compound 10 µM): < 31.6 nM
Structure (SMILES): O=C(c1cc(Cc2n[nH]c(=O)c3ccccc23)ccc1F)N1CCN(C(=O)C2CC2)CC1 + Cc1cncc(-c2nc(NCCc3c[nH]c4ccccc34)c3ncn(C(C)C)c3n2)c1
viability, T/C [31]: 107%
viability, T/C [32]: 110%
viability, T/C [33]: 88.1%
viability, T/C [34]: 110%
viability, T/C [35]: 123%
viability, T/C [36]: 123%
viability, T/C [37]: 108%
viability, T/C [38]: 103%
viability, T/C [39]: 96.5%
viability, T/C [40]: 110%
viability, T/C [41]: 125%
viability, T/C [42]: 130%
viability, T/C [43]: 97.6%
viability, T/C [44]: 96.5%
viability, T/C [45]: 100%
viability, T/C [46]: 115%
viability, T/C [47]: 125%
viability, T/C [48]: 134%
viability, T/C [49]: 115%
viability, T/C [50]: 110%
viability, T/C [51]: 115%
viability, T/C [52]: 116%
viability, T/C [53]: 146%
viability, T/C [54]: 130%
viability, T/C [55]: 48.2%
viability, T/C [56]: 44.3%
viability, T/C [57]: 38.8%
viability, T/C [58]: 41.5%
viability, T/C [59]: 28.5%
viability, T/C [60]: 21.5%
